Laboratory results: US20120121540A1 (priority 2007, published 2012)

Experiment: HCV replicon assay (luciferase reporter, ET cell line)
Type: cell-based
Details: Hepatitis C virus, HCV replicon luciferase activity in ET cells
How it was run: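 ET cells carry a stable luciferase-ubiquitin-neo/NS3-5B subgenomic HCV replicon with adaptive mutations. Compounds (0.1 nM to […], 0.5% DMSO) were added 24 h after plating, and luciferase was read 48-72 h later. EC50 came from 10-point 2-fold dilutions fitted to a Hill equation; TC50 was measured in parallel by WST-1.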

CC1(C)CCCN1C(=O)c1nc2c(C(F)(F)F)cc(-c3ccoc3)cn2c1Cl [Compound 330, (3-Chloro-6-furan-3-yl-8-trifluoromethyl-imidazo[1,2-a]pyridin-2-yl)-(2,2-dimethyl-pyrrolidin-1-yl)-methanone]
inhibition at 10 µM: 34.4%

O=C(c1nc2c(C(F)(F)F)cc(-c3ccoc3)cn2c1Cl)N1CCCC1c1ccccn1 (stereo not drawn) [Compound 331, (3-Chloro-6-furan-3-yl-8-trifluoromethyl-imidazo[1,2-a]pyridin-2-yl)-(2-pyridin-2-yl-pyrrolidin-1-yl)-methanone]
inhibition at 10 µM: 53.3%

CN(Cc1cccs1)C(=O)c1nc2c(C(F)(F)F)cc(-c3ccoc3)cn2c1Cl [Compound 332, 3-Chloro-6-furan-3-yl-8-trifluoromethyl-imidazo[1,2-a]pyridine-2-carboxylic Acid Methyl-thiophen-2-ylmethyl-amide]
inhibition at 10 µM: 37.7%

O=C(c1nc2c(C(F)(F)F)cc(-c3ccoc3)cn2c1Cl)N1CCC(c2ccccc2F)C1 (stereo not drawn) [Compound 333, (3-Chloro-6-furan-3-yl-8-trifluoromethyl-imidazo[1,2-a]pyridin-2-yl)-[3-(2-fluoro-phenyl)-pyrrolidin-1-yl]-methanone]
inhibition at 10 µM: 98.9%

O=C(c1nc2c(C(F)(F)F)cc(-c3ccoc3)cn2c1Cl)N1CCC(c2cccc(F)c2)C1 (stereo not drawn) [Compound 334, (3-Chloro-6-furan-3-yl-8-trifluoromethyl-imidazo[1,2-a]pyridin-2-yl)-[3-(3-fluoro-phenyl)-pyrrolidin-1-yl]-methanone]
inhibition at 10 µM: 96.1%

COc1ccc(C2CCN(C(=O)c3nc4c(C(F)(F)F)cc(-c5ccoc5)cn4c3Cl)C2)cc1 (stereo not drawn) [Compound 335, (3-Chloro-6-furan-3-yl-8-trifluoromethyl-imidazo[1,2-a]pyridin-2-yl)-[3-(4-methoxy-phenyl)-pyrrolidin-1-yl]-methanone]
inhibition at 10 µM: 76.3%

O=C(c1nc2c(C(F)(F)F)cc(-c3ccoc3)cn2c1Cl)N1CCC(c2ccc(C(F)(F)F)cc2)C1 (stereo not drawn) [Compound 336, (3-chloro-6-furan-3-yl-8-trifluoromethyl-imidazo[1,2-a]pyridin-2-yl)-[3-(4-trifluoromethyl-phenyl)-pyrrolidin-1-yl]-methanone]
inhibition at 10 µM: 73.2%

O=C(c1cn2cc(-c3ccoc3)cc(C(F)(F)F)c2n1)N1CCC(c2ccccc2F)C1 (stereo not drawn) [Compound 337, [3-(2-Fluoro-phenyl)-pyrrolidin-1-yl]-(6-furan-3-yl-8-trifluoromethyl-imidazo[1,2-a]pyridin-2-yl)-methanone]
inhibition at 10 µM: 97.7%

COC(=O)c1ccccc1C1CCN(C(=O)c2nc3c(C(F)(F)F)cc(-c4ccoc4)cn3c2Cl)C1 (stereo not drawn) [Compound 338, 2-[1-(3-Chloro-6-furan-3-yl-8-trifluoromethyl-imidazo[1,2-a]pyridine-2-carbonyl)-pyrrolidin-3-yl]-benzoic Acid Methyl Ester]
inhibition at 10 µM: 49.3%

COc1ccc(C2CCN(C(=O)c3nc4c(C(F)(F)F)cc(-c5ccoc5)cn4c3Cl)C2)cc1OC (stereo not drawn) [Compound 339, (3-Chloro-6-furan-3-yl-8-trifluoromethyl-imidazo[1,2-a]pyridin-2-yl)-[3-(3,4-dimethoxy-phenyl)-pyrrolidin-1-yl]-methanone]
inhibition at 10 µM: 63%

O=C(c1nc2c(C(F)(F)F)cc(-c3ccoc3)cn2c1Cl)N1CCC(N2CCCCC2)C1 (stereo not drawn) [Compound 340, (3-Chloro-6-furan-3-yl-8-trifluoromethyl-imidazo[1,2-a]pyridin-2-yl)-(3-piperidin-1-yl-pyrrolidin-1-yl)-methanone]
inhibition at 10 µM: 65.6%

O=C(c1nc2c(C(F)(F)F)cc(-c3ccoc3)cn2c1Cl)N1CCC(c2ccccc2Cl)C1 (stereo not drawn) [Compound 341, (3-Chloro-6-furan-3-yl-8-trifluoromethyl-imidazo[1,2-a]pyridin-2-yl)-[3-(2-chloro-phenyl)-pyrrolidin-1-yl]-methanone]
inhibition at 10 µM: 83.6%

O=C(NCc1cccs1)c1cc2cc(-c3cn[nH]c3)cc(Cl)c2[nH]1 [Compound 347, 7-Chloro-5-(1H-pyrazol-4-yl)-1H-indole-2-carboxylic Acid (thiophen-2-ylmethyl)-amide]
inhibition at 10 µM: 0.1%

O=C(NCc1cccs1)c1cc2cc(-c3ccoc3)cc(Cl)c2[nH]1 [Compound 348, 7-Chloro-5-furan-3-yl-1H-indole-2-carboxylic Acid (thiophen-2-ylmethyl)-amide]
inhibition at 10 µM: 0.1%

O=C(c1nc2c(C(F)(F)F)cc(-c3ccoc3)cc2[nH]1)N1CCC(c2ccc(F)cc2)C1 (stereo not drawn) [Compound 351, [3-(4-Fluoro-phenyl)-pyrrolidin-1-yl]-(6-furan-3-yl-4-trifluoromethyl-1H-benzoimidazol-2-yl)-methanone]
inhibition at 10 µM: 52.1%

CCn1c(C(=O)N2CCC(c3ccc(F)cc3)C2)nc2c(C(F)(F)F)cc(-c3ccoc3)cc21 (stereo not drawn) [Compound 352, (1-Ethyl-6-furan-3-yl-4-trifluoromethyl-1H-benzoimidazol-2-yl)-[3-(4-fluoro-phenyl)-pyrrolidin-1-yl]-methanone]
inhibition at 10 µM: 49.8%

CCn1c(C(=O)N2CCC(c3ccc(F)cc3)C2)nc2cc(-c3ccoc3)cc(C(F)(F)F)c21 (stereo not drawn) [Compound 353, (1-Ethyl-5-furan-3-yl-7-trifluoromethyl-1H-benzoimidazol-2-yl)-[3-(4-fluoro-phenyl)-pyrrolidin-1-yl]-methanone]
inhibition at 10 µM: 3.5%

CN(C)Cc1cccc(-c2cc(C(F)(F)F)c3nc(C(=O)N4CCC(c5ccc(F)cc5)C4)c(Cl)n3c2)c1 (stereo not drawn) [Compound 354, [3-Chloro-6-(3-dimethylaminomethyl-phenyl)-8-trifluoromethyl-imidazo[1,2-a]pyridin-2-yl]-[3-(4-fluoro-phenyl)-pyrrolidin-1-yl]-methanone]
inhibition at 10 µM: 97.8%

O=C(Nc1nc2c(C(F)(F)F)cc(-c3ccoc3)cn2c1Cl)c1cccs1 [Compound 356, Thiophene-2-carboxylic acid (3-chloro-6-furan-3-yl-8-trifluoromethyl-imidazo[1,2-a]pyridin-2-yl)-amide]
inhibition at 10 µM: 32.5%

C=C(C)c1cc(-c2ccccc2)cn2c(Cl)c(C(=O)NCc3cccs3)nc12 [Compound 358, 3-Chloro-8-isopropenyl-6-phenyl-imidazo [1,2-a]pyridine-2-carboxylic Acid (thiophen-2-ylmethyl)-amide]
inhibition at 10 µM: 77.3%

O=C(NCc1cccs1)c1nc2c(/C=C/c3ccccc3)cc(-c3ccccc3)cn2c1Cl [Compound 359, 3-Chloro-6-phenyl-8-styryl-imidazo[1,2-a]pyridine-2-carboxylic Acid (thiophen-2-ylmethyl)-amide]
inhibition at 10 µM: 100%

O=C(NCc1cncs1)c1nc2c(C(F)(F)F)cc(-c3ccoc3)cn2c1Cl [Compound 360, 3-Chloro-6-furan-3-yl-8-trifluoromethyl-imidazo[1,2-a]pyridine-2-carboxylic Acid (thiazol-5-ylmethyl)-amide]
inhibition at 10 µM: 85.2%

N#Cc1cc(-c2ccccc2)cn2c(Br)c(C(=O)NCc3cccs3)nc12 [Compound 362, 3-Bromo-8-cyano-6-phenyl-imidazo[1,2-a]pyridine-2-carboxylic Acid (thiophen-2-ylmethyl)amide]
inhibition at 10 µM: 86.9%

O=S(=O)(Cc1ccccc1)Nc1nc2c(C(F)(F)F)cc(-c3ccco3)cn2c1Cl [Compound 363, N-(3-Chloro-6-furan-2-yl-8-trifluoromethyl-imidazo[1,2-a]pyridin-2-yl)-C-phenyl-methanesulfonamide]
inhibition at 10 µM: 12.6%

O=C(NCc1cccs1)c1nc2c(C(F)(F)F)cc(-c3cccc(F)c3)cn2c1CN1CCOCC1 [Compound 364, 6-(3-Fluoro-phenyl)-3-morpholin-4-ylmethyl-8-trifluoromethyl-imidazo[1,2-a]pyridine-2-carboxylic Acid (thiophen-2-ylmethyl)-amide]
inhibition at 10 µM: 5.3%

CN(C)Cc1c(C(=O)NCc2cccs2)nc2c(C(F)(F)F)cc(-c3cccc(F)c3)cn12 [Compound 365, 3-Dimethylaminomethyl-6-(3-fluoro-phenyl)-8-trifluoromethyl-imidazo[1,2-a]pyridine-2-carboxylic Acid (thiophen-2-ylmethyl)-amide]
inhibition at 10 µM: 4.4%

O=C(NCc1cccs1)c1nc2c(C(F)(F)F)cc(-c3cccc(F)c3)cn2c1Br [Compound 367, 3-bromo-6-(3-fluoro-phenyl)-8-trifluoromethyl-imidazo[1,2-a]pyridine-2-carboxylic acid (thiophen-2-ylmethyl)-amide]
inhibition at 10 µM: 96.2%

O=C(c1nc2c(C(F)(F)F)cc(-c3cccc(F)c3)cn2c1Br)N1CCC(c2ccccc2)C1 (stereo not drawn) [Compound 368, [3-Bromo-6-(3-fluoro-phenyl)-8-trifluoromethyl-imidazo[1,2-a]pyridin-2-yl]-(3-phenyl-pyrrolidin-1-yl)-methanone]
inhibition at 10 µM: 92.2%

O=C(NCc1cccs1)c1nc2c(Cl)cc(-c3ccccc3)cn2c1Br [Compound 369, 3-Bromo-8-chloro-6-phenyl-imidazo[1,2-a]pyridine-2-carboxylic Acid (thiophen-2-ylmethyl)-amide]
inhibition at 10 µM: 88%

O=C(NCc1cccs1)c1nc2c(Cl)cc(-c3ccccc3)cn2c1Cl [Compound 370, 3,8-Dichloro-6-phenyl-imidazo[1,2-a]pyridine-2-carboxylic Acid (thiophen-2-ylmethyl)-amide]
inhibition at 10 µM: 80.4%

O=C(NCc1cccs1)c1nc2c(Br)cc(-c3ccccc3)cn2c1Cl [Compound 371, 8-Bromo-3-chloro-6-phenyl-imidazo[1,2-a]pyridine-2-carboxylic Acid (thiophen-2-ylmethyl)-amide]
inhibition at 10 µM: 78.6%

O=C(NCc1cccs1)c1nc2c(-c3ncon3)cc(-c3ccoc3)cn2c1Cl [Compound 374, 3-Chloro-6-furan-3-yl-8-[1,2,4]oxadiazol-3-yl-imidazo[1,2-a]pyridine-2-carboxylic Acid (thiophen-2-ylmethyl)-amide]
inhibition at 10 µM: 28.6%

CCCCCc1nc(-c2cc(-c3ccoc3)cn3c(Cl)c(C(=O)NCc4cccs4)nc23)no1 [Compound 375, 3-Chloro-6-furan-3-yl-8-(5-pentyl-[1,2,4]oxadiazol-3-yl)-imidazo[1,2-a]pyridine-2-carboxylic Acid (thiophen-2-ylmethyl)-amide]
inhibition at 10 µM: 35.4%
